From ChEMBL document CHEMBL1201862, “PubChem BioAssay data set” (2004)
The source made the active and inactive calls.

Columns and labels:
[1] = target: T1, Aryl hydrocarbon receptor (Homo sapiens, UniProt P35869); assay: Luminescence-based cell-based high throughput dose response assay for activators of the Aryl Hydrocarbon Receptor (AHR). [Related pubchem assays: 2796 (Primary screen (AHR activators in singlicate)), 2845 (Confirmation screen (AHR activators in triplicate)), 434939 (Counterscreen (PXR activators in triplicate)), 2804 (Summary (AHR activators))]; type: ADME
T1 sequence (P35869 whole entry): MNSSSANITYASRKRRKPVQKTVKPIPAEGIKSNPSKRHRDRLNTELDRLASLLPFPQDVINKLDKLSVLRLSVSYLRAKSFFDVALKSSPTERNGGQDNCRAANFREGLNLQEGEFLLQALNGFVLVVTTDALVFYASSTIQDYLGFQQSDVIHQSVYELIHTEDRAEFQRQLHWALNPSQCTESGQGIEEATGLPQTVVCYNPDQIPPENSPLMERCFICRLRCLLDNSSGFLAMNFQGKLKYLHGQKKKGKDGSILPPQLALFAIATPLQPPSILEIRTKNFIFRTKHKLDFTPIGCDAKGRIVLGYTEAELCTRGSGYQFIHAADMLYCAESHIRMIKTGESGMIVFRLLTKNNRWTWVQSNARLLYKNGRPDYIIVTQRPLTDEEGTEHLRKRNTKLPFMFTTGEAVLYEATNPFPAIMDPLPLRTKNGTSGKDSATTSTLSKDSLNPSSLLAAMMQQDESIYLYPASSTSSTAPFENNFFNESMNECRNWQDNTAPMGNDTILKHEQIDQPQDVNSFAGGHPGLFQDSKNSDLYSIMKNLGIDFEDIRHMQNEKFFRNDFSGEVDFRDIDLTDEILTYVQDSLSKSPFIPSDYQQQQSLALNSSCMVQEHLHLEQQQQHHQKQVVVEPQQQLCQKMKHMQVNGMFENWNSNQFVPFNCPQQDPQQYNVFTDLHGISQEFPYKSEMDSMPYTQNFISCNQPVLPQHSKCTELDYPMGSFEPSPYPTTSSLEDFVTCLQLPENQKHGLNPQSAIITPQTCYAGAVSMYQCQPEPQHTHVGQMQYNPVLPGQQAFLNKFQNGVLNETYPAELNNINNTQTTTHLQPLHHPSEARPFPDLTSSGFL

Vero = assay: mammalian cell viability reduction – secondary assay, cytotoxicity control for West Nile virus antiviral project, dose response (AID 1650); type: functional; conditions: Chlorocebus sabaeus
[2] = target: Peroxisome proliferator-activated receptor gamma/Nuclear receptor coactivator 1 (Homo sapiens, UniProt P37231); type: functional;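 further: agonist potency as compounds enhance coactivator SRC-1 recruitment to PPARgamma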
[3] = target: Peroxisome proliferator-activated receptor gamma/Nuclear receptor coactivator 3 (Homo sapiens, UniProt P37231); type: functional;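 further: agonist potency for raising coactivator recruitment to the receptor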
[4] = target: Peroxisome proliferator-activated receptor gamma/Nuclear receptor coactivator 2 (Homo sapiens, UniProt P37231); type: functional;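 further: agonist potency for raising coactivator recruitment to the receptor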
[5] = M. tuberculosis H37Rv growth inhibitors, H37Rv strain (AID 1626); type: functional
[6] = viability loss of HPDE-C7K cells – cell-based, fluorescence, HTS, primary screen (AID 431); type: functional; conditions: Homo sapiens
[7] = HPDE-C7 pancreatic duct cell viability loss – fluorescence, HTS (AID 430); type: functional, cell-based; conditions: Homo sapiens
[8] = target: T2, Neuropeptide Y receptor type 1 (Homo sapiens, UniProt P25929); type: functional;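 further: HEK293 cells with a CNG channel challenged with NPY then isoproterenol; potency as antagonist that reverses NPY suppression of cAMP signal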
T2 sequence (P25929 whole entry): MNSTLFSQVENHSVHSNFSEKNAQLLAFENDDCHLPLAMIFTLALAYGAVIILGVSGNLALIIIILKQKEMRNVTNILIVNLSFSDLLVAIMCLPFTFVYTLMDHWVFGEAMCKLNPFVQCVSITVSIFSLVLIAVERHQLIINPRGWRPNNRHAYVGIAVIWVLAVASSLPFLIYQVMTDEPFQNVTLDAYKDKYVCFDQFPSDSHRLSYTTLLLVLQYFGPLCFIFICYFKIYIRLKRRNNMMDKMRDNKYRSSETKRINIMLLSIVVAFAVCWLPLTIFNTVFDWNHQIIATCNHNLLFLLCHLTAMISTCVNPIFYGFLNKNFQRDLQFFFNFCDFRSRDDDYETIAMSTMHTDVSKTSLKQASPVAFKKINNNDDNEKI

[9] = target: T3, Neuropeptide Y receptor type 2 (Homo sapiens, UniProt P49146); type: functional, cell-based;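 further: HEK293 cells expressing the receptor and a CNG channel; stimulus was NPY near EC95 followed by isoproterenol to raise cAMP; antagonist potency measured as restoring cAMP signal that NPY suppresses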
T3 sequence (P49146 whole entry): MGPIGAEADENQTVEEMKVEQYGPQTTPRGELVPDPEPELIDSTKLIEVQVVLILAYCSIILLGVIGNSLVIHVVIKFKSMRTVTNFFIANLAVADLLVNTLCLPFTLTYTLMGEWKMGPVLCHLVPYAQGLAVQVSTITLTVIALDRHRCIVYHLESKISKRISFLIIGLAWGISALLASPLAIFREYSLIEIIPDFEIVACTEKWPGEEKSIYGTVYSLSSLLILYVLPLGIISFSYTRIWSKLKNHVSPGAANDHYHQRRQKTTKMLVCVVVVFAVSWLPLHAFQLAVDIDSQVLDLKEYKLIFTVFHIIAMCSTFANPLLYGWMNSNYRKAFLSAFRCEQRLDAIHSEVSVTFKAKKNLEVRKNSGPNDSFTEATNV

Sequence of Peroxisome proliferator-activated receptor gamma/Nuclear receptor coactivator 2 (P37231 whole entry): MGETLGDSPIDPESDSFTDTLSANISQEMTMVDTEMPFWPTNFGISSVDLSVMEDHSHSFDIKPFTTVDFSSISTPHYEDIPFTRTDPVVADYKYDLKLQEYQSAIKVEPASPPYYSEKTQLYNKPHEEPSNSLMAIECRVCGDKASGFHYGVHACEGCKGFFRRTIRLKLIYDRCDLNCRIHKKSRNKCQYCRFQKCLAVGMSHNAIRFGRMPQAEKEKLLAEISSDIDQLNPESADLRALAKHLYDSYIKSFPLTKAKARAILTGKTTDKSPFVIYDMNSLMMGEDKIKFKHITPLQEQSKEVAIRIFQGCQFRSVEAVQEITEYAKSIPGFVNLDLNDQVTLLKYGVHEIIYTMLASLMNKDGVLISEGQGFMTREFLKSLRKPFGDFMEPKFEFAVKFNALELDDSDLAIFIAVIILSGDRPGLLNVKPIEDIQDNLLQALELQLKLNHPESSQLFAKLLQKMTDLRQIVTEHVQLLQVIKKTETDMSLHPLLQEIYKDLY
Sequence of Peroxisome proliferator-activated receptor gamma/Nuclear receptor coactivator 2 (Q15596 whole entry, further chain): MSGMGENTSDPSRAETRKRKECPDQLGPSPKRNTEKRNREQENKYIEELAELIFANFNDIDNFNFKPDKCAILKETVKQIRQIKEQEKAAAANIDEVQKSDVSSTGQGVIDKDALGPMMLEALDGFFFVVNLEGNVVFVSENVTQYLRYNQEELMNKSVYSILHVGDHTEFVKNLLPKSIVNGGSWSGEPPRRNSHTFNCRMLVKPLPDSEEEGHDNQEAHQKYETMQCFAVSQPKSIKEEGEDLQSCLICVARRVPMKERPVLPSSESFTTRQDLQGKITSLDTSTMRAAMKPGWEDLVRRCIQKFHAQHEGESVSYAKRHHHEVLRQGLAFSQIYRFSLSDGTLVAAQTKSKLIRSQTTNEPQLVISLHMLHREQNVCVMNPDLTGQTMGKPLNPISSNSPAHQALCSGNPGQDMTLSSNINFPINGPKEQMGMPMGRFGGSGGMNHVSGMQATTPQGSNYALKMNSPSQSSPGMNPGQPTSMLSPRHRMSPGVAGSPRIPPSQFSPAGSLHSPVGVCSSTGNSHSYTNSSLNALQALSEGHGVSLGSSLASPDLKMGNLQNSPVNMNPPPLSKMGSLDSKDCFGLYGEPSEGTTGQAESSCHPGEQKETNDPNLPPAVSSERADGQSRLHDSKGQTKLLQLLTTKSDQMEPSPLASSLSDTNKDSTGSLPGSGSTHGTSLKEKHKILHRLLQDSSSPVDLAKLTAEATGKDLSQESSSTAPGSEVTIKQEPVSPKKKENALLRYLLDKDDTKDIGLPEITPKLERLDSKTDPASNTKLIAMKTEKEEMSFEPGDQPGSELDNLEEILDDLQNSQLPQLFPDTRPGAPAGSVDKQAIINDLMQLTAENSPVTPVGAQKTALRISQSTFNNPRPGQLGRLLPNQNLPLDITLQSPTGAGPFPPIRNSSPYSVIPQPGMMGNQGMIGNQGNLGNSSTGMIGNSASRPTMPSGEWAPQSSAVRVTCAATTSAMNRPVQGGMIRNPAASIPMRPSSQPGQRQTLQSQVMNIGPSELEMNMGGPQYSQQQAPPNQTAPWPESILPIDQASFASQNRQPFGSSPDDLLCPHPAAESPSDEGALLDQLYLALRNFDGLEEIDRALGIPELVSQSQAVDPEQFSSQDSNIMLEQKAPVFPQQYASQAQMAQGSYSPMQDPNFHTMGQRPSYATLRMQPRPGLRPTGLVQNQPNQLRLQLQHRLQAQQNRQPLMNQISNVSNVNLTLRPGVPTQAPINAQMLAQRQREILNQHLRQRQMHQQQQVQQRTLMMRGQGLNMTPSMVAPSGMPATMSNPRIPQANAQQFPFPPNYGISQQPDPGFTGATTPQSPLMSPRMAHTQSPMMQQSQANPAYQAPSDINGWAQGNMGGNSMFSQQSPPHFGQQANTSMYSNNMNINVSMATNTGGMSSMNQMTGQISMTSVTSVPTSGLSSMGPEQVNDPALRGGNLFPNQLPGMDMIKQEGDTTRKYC
Sequence of Peroxisome proliferator-activated receptor gamma/Nuclear receptor coactivator 3 (P37231 whole entry): as the sequence (P37231 whole entry) above
Sequence of Peroxisome proliferator-activated receptor gamma/Nuclear receptor coactivator 3 (Q9Y6Q9 whole entry, further chain): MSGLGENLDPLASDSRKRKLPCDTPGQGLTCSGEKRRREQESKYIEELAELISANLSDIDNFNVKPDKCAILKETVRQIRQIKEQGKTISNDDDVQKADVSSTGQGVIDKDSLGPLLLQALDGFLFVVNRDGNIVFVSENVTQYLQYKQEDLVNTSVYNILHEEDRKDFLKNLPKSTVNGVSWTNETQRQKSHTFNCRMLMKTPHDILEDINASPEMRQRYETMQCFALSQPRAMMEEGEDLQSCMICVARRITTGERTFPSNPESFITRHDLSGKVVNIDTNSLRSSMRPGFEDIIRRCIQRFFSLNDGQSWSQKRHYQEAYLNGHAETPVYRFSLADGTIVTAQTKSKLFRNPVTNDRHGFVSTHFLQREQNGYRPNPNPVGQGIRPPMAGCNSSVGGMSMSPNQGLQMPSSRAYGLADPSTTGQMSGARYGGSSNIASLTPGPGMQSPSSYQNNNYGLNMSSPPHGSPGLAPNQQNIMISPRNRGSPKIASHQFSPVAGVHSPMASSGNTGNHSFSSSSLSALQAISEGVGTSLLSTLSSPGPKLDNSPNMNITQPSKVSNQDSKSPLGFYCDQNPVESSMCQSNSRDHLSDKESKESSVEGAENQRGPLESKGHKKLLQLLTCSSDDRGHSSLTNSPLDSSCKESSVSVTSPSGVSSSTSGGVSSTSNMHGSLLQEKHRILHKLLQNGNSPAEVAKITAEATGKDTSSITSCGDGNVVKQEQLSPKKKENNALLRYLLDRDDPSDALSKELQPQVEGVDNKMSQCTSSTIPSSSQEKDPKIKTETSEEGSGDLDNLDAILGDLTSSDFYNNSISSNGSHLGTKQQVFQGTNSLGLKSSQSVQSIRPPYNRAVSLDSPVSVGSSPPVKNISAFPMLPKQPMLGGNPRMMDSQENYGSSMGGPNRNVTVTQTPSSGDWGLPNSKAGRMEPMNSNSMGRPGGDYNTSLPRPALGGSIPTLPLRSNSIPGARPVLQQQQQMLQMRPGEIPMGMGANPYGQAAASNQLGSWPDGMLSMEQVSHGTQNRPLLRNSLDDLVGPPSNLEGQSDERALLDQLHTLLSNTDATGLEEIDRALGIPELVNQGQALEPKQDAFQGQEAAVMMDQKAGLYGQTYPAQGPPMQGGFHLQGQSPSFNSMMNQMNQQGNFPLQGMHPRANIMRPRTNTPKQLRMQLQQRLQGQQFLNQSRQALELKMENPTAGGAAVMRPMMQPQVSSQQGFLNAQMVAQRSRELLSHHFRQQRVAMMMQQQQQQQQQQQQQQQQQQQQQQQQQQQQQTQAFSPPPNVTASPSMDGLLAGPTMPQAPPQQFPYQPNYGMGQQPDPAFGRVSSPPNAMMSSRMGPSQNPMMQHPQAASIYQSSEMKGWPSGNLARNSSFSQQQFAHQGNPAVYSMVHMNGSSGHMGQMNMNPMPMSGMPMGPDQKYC

SMILES: CCOc1ccccc1NC(=O)c1ccc2nccnc2c1
- EC50 [1]: 2.21 µM (active)

SMILES: COc1ccc(NC(=O)CSc2ccc3c4c(cccc24)C(=O)c2ccccc2-3)cc1
- CC50 (Vero): 71.7 µM (active)
- EC50 [2]: > 79.4 µM (not active)
- EC50 [3]: > 79.4 µM (not active)
- EC50 [4]: > 79.4 µM (not active)

SMILES: O=C(Nc1nc(-c2ccc(F)cc2)cs1)c1cnccn1
- IC50 [5]: > 100 µM (active)

SMILES: C=CCn1c(N)c(C(=O)NCC2CCCO2)c2nc3ccccc3nc21 (stereo not given)
- EC50 [6]: > 20 µM (not active)
- EC50 [7]: > 20 µM (not active)

SMILES: CC(C)COc1ccc(C(=O)OC2CC(C)(C)OCC2CN(C)C)cc1 (stereo not given)
- IC50 [8]: 5.55 µM (active)
- IC50 [9]: 8.01 µM (active)

SMILES: Cc1n[nH]c2c1C(c1ccc(-c3ccccc3C#N)o1)C(C#N)=C(N)O2 (stereo not given)
- EC50 [6]: 16.3 µM (active)
- EC50 [7]: 7.78 µM (active)

SMILES: CC(C)(C)NC(=O)C1N(c2cccnc2)C(=O)C2C(C(=O)Nc3ccccc3F)C3(C)C=CC21O3 (stereo not given)
- EC50 [6]: > 20 µM (not active)
- EC50 [7]: > 20 µM (not active)

SMILES: [O-][n+]1onc2c1CCc1nnc(-c3ccccc3)cc1-2
- EC50 [1]: 2.83 µM (active)

SMILES: Cc1cccc(C)c1NC(=S)Nc1c(C)n(C)n(-c2ccccc2)c1=O
- EC50 [2]: > 79.4 µM (not active)
- EC50 [3]: > 79.4 µM (not active)
- EC50 [4]: > 79.4 µM (not active)

SMILES: COc1ccc(-n2nc(C(=O)Nc3ccc4c(c3)OCO4)c3ccccc3c2=O)cc1
- IC50 [8]: 7.16 µM (active)
- IC50 [9]: 7.17 µM (active)
